Measurements taken from patent US8940715B2, “Lipid-regulating agent and use thereof” (Hayashibara Co., Ltd., priority 2003, dated 2015).
Marks after values point to notes of the source that are not given here.

Tests used:
[1] = Experiment 1-1 feeding test on rat: weight and amount of feed taken; format: in vivo; details: 4 weeks
Source text: (§1) Fifty 5-weeks aged male Wister-rats, having a weight of 110 to 120 grams, commercialized by Charles River Japan, Kanagawa, Japan, were fed on a non-fiber feed having a composition shown in Table 1 for one week for habituation. After the habituation, the rats were randomly divided into five groups and each group was fed on either of feeds shown in Table 1, i.e., a non-fiber feed, a feed in which cellulose was incorporated into the non-fiber feed to give a content of 5% (hereinafter, abbreviated as “fiber feed”), a feed in which powdery anhydrous crystalline CTS (purity of CTS: 99.5%), prepared by the method of Example A-3 described later, was incorporated into the non-fiber feed to give a content of 1, 2, or 5%, on a dry solid basis, and the feeding test was carried out for four weeks. A fiber-feed and three kinds of feeds comprising CTS were prepared to give the total content of cellulose or CTS and corn starch of 44.75% to the total weight of each feed. The rats were kept under the conditions of keeping the temperature at 25° C., lighting and shading for 12 hours each/day, and allowing the rats to eat the respective feed and water freely. After the completion of the feeding test, weight of individuals in each group was measured and an average weight and an average increase of weight of each group during the test period were calculated. Also, the total amount of feed fed to individual rat in each group during the 4-weeks test period and an average amount of CTS taken per day per kg-weight-rat were calculated and the results are in Table 2.

male Wister-rats [2] = test: Experiment 1-1 amount of lipids in blood plasma; format: in vivo; details: 4 weeks, rat
Source text: as §1
After the feeding test, each rat was fasted for one day and incised under anesthesia with ether. Then, blood was collected from the main vein of each rat using a syringe treated with 1% EDTA. Each collected blood was centrifuged at 3,500 rpm for 10 minutes to separate blood plasma and the contents of total cholesterol, triglyceride, and phospholipids in the resulting blood plasma were measured by using kits, “CHOLESTEROL C-TEST-WAKO”, “TRIGLYCERIDE-TEST-WAKO”, and “PHOSPHOLIPID C-TEST-WAKO”, respectively, commercialized by Wako Pure Chemical Industries, Ltd., Osaka, Japan. In order to check the hepatic function disorder, GOT activity in the blood plasma was measured using a kit, “GOT-TEST-WAKO”, commercialized by Wako Pure Chemical Industries, Ltd., Osaka, Japan. The content of LDL-cholesterol was calculated by subtracting the content of HDL-cholesterol from the total content of cholesterol. A significant difference test was done with respect to the group fed on fiber feed. In the case of cholesterol, a significant difference test was done with respect to the group fed on non-fiber feed because it was believed that cellulose has no activity of reducing the amount of cholesterol by oral intake as described in “SHOKUMOTSU-SENI KISO-TO-OYO (Dietary fiber, its basis and application)” published by ASAKURA-SHOTEN in 1997.

male Wister-rats [3] = test: Experiment 1-1 GOT activity in blood plasma (hepatic function disorder check); format: in vivo, rat; details: for GOT: blood plasma, 4 weeks, rat
Source text: as §1
After the feeding test, each rat was fasted for one day and incised under anesthesia with ether. Then, blood was collected from the main vein of each rat using a syringe treated with 1% EDTA. Each collected blood was centrifuged at 3,500 rpm for 10 minutes to separate blood plasma and the contents of total cholesterol, triglyceride, and phospholipids in the resulting blood plasma were measured by using kits, “CHOLESTEROL C-TEST-WAKO”, “TRIGLYCERIDE-TEST-WAKO”, and “PHOSPHOLIPID C-TEST-WAKO”, respectively, commercialized by Wako Pure Chemical Industries, Ltd., Osaka, Japan. In order to check the hepatic function disorder, GOT activity in the blood plasma was measured using a kit, “GOT-TEST-WAKO”, commercialized by Wako Pure Chemical Industries, Ltd., Osaka, Japan. The content of LDL-cholesterol was calculated by subtracting the content of HDL-cholesterol from the total content of cholesterol. A significant difference test was done with respect to the group fed on fiber feed. […]

male Wister-rats [4] = test: Experiment 1-1 wet-weight of adipose tissues around organs; format: in vivo; details: 4 weeks, rat
Source text: as §1
(§2) After collecting the blood described above, each rat was killed by dislocating its cervical vertebrae and anatomized. Then, adipose tissues surrounding intestinal membrane, kidney, and testis, as well as liver and cecum, were collected. The wet-weight of those adipose tissues was measured and the results are in Table 4. In the case of liver, the wet-weight and the amount of total lipid, total cholesterol, triglyceride, and phospholipids were measured and the results are in Table 5. The amount of total lipid, total cholesterol, triglyceride, and phospholipids in the liver were measured by the steps of homogenizing four parts by weight of liver with four parts by weight of water using a homogenizer; extracting lipid by repeating three-times the following procedure of adding eight milliliters of a chloroform-methanol (2:1, by volume) solution, stirring the mixture, and centrifuging (3,000 rpm, 15 min) to collect chloroform phase; concentrating the resulting chloroform solution; and measuring those according to the same procedure used in the case of lipids in blood plasma.

male Wister-rats [5] = test: Experiment 1-1 liver weight and lipids in liver; format: in vivo; details: 4 weeks, rat
Source text: as §1, §2

male Wister-rats [6] = test: Experiment 1-1 cecal tissue, cecal content and bile acids in cecum; format: in vivo; details: 4 weeks, rat
Source text: Fifty 5-weeks aged male Wister-rats, having a weight of 110 to 120 grams, commercialized by Charles River Japan, Kanagawa, Japan, were fed on a non-fiber feed having a composition shown in Table 1 for one week for habituation. After the habituation, the rats were randomly divided into five groups and each group was fed on either of feeds shown in Table 1, i.e., a non-fiber feed, a feed in which cellulose was incorporated into the non-fiber feed to give a content of 5% (hereinafter, abbreviated as “fiber feed”), a feed in which powdery anhydrous crystalline CTS (purity of CTS: 99.5%), prepared by the method of Example A-3 described later, was incorporated into the non-fiber feed to give a content of 1, 2, or 5%, on a dry solid basis, and the feeding test was carried out for four weeks. A fiber-feed and three kinds of feeds comprising CTS were prepared to give the total content of cellulose or CTS and corn starch of 44.75% to the total weight of each feed. […] After the completion of the feeding test, weight of individuals in each group was measured and an average weight and an average increase of weight of each group during the test period were calculated. Also, the total amount of feed fed to individual rat in each group during the 4-weeks test period and an average amount of CTS taken per day per kg-weight-rat were calculated and the results are in Table 2.
Just after extirpating cecum as described above, its content was collected and weighted. The concentration of bile acids was measured by the steps of adding two milliliters of 80% (v/v) methanol aqueous solution to 0.2 gram of the cecal content, extracting bile acids at 70° C. for 30 min, centrifuging (3,500 rpm, 10 min) the mixture, drying the resulting supernatant in a dessicator with P2O5 for overnight, and measuring bile acids using a kit, “BILE ACID-TEST WAKO”, commercialized by Wako Pure Chemical Industries, Ltd., Osaka, Japan. The amount of bile acids was calculated by multiplying the concentration of bile acids and weight of the cecal content. […]

male Wister-rats [7] = test: Experiment 1-1 observation of diarrhea during feeding test; format: in vivo, rat
Source text: as §1
The symptom of diarrhea was not observed in rats fed on a feed with CTS content of 2%.

[8] = 5% (w/w) CTS (Fiber: 5% cellulose) in feed

Q: Which results are given for `OCC1OC2OCC3O[C@H](O[C@H]4C(O)C(CO)OC(OCC5O[C@H](O[C@@H](C1O)C2O)C(O)C(O)[C@@H]5O)C4O)C(O)C(O)[C@@H]3O` (stereo partly drawn) [CTS, cyclo {→6)-α-D-glucopyranosyl-(1→3)-α-D-glucopyranosyl-(1→6)-α-D-glucopyranosyl-(1→3)-α-D-glucopyranosyl-(1→}]?
A: Increase of weight ([1]; 1% (w/w) CTS in feed): 164 g/individual/28 days; Weight ([1]; 1% (w/w) CTS in feed): 337 g/individual; Increase of weight ([1]; 2% (w/w) CTS in feed): 169 g/individual/28 days; Weight ([1]; 2% (w/w) CTS in feed): 342 g/individual; Increase of weight [1, 8]: 149* g/individual/28 days; Weight [1, 8]: 322* g/individual; Phospholipids (male Wister-rats [2]; 1% (w/w) CTS in feed): 116 mg/dL; Total cholesterols (male Wister-rats [2]; 1% (w/w) CTS in feed): 67.1 mg/dL; Triglycerides (male Wister-rats [2]; 1% (w/w) CTS in feed): 44.2 mg/dL; Phospholipids (male Wister-rats [2]; 2% (w/w) CTS in feed): 115 mg/dL; Total cholesterols (male Wister-rats [2]; 2% (w/w) CTS in feed): 66.1 mg/dL; Triglycerides (male Wister-rats [2]; 2% (w/w) CTS in feed): 28.7* mg/dl; Phospholipids (male Wister-rats [2]; [8]): 107 mg/dL; Total cholesterols (male Wister-rats [2]; [8]): 59.4* mg/dl; Triglycerides (male Wister-rats [2]; [8]): 21.7* mg/dl; GOT (male Wister-rats [3]; 1% (w/w) CTS in feed): 10.3 IU; GOT (male Wister-rats [3]; 2% (w/w) CTS in feed): 10.2 IU; GOT (male Wister-rats [3]; [8]): 10.7 IU; GOT values (markers of functional disorder of liver) during the test period (male Wister-rats [3]; rats, regardless of the intake of CTS): not significantly changed; Adipose surrounding intestinal membrane (male Wister-rats [4]; 1% (w/w) CTS in feed): 3.7 g/individual; Adipose surrounding kidney (male Wister-rats [4]; 1% (w/w) CTS in feed): 3.7* g/individual; Adipose surrounding testis (male Wister-rats [4]; 1% (w/w) CTS in feed): 4.0* g/individual; Adipose surrounding intestinal membrane (male Wister-rats [4]; 2% (w/w) CTS in feed): 3.1* g/individual; Adipose surrounding kidney (male Wister-rats [4]; 2% (w/w) CTS in feed): 2.9* g/individual; Adipose surrounding testis (male Wister-rats [4]; 2% (w/w) CTS in feed): 3.9* g/individual; Adipose surrounding intestinal membrane (male Wister-rats [4]; [8]): 1.9* g/individual; Adipose surrounding kidney (male Wister-rats [4]; [8]): 2.1* g/individual; Adipose surrounding testis (male Wister-rats [4]; [8]): 3.1* g/individual; Phospholipids in liver (male Wister-rats [5]; 1% (w/w) CTS in feed): 140 mg/individual; Total cholesterols in liver (male Wister-rats [5]; 1% (w/w) CTS in feed): 35.9 mg/individual; Total lipids in liver (male Wister-rats [5]; 1% (w/w) CTS in feed): 510 mg/individual; Triglycerides in liver (male Wister-rats [5]; 1% (w/w) CTS in feed): 186 mg/individual; Phospholipids in liver (male Wister-rats [5]; 2% (w/w) CTS in feed): 149 mg/individual; Total cholesterols in liver (male Wister-rats [5]; 2% (w/w) CTS in feed): 37.2 mg/individual; Total lipids in liver (male Wister-rats [5]; 2% (w/w) CTS in feed): 598 mg/individual; Triglycerides in liver (male Wister-rats [5]; 2% (w/w) CTS in feed): 254 mg/individual; Phospholipids in liver (male Wister-rats [5]; [8]): 142 mg/individual; Total cholesterols in liver (male Wister-rats [5]; [8]): 35.4 mg/individual; Total lipids in liver (male Wister-rats [5]; [8]): 575 mg/individual; Triglycerides in liver (male Wister-rats [5]; [8]): 239 mg/individual; Bile acids in cecum (male Wister-rats [6]; 1% (w/w) CTS in feed): 1.15* μmol; Bile acids in cecum (male Wister-rats [6]; 2% (w/w) CTS in feed): 1.36* μmol; Bile acids in cecum (male Wister-rats [6]; [8]): 1.53* μmol; symptom of diarrhea (male Wister-rats [7]; rats fed on a feed with CTS content of 2%): not observed; duration of symptom of diarrhea after initial intake of CTS (male Wister-rats [7]; rats fed on a feed with CTS content of 5%): 2 to 3 days; symptom of diarrhea (individuals affected) (male Wister-rats [7]; rats fed on a feed with CTS content of 5%, then cured): two individuals in ten individuals
